Measurements: patent US20190167660A1, “PPAR-gamma AGONIST FOR TREATMENT OF BONE DISORDERS” (InteKrin Therapeutics, Inc., priority 2016, published 2019)

How the values were obtained:
adiponectin [1] = test: 14-day study in healthy subjects: serum adiponectin levels; assay type: in vivo, human
Experimental: (§1) A study was conducted to determine the effect of INT131 on serum adiponectin levels. Thirty healthy subjects were randomly selected to receive either placebo, 0.1 mg INT131, 1 mg INT131 or 4 mg INT131 daily for 14 days. To measure adiponectin levels blood was drawn at Days 1, 4, 8 and 14.

HbA1c [2] = conditions: DePaoli et al., Diabetes Care 2014; cited from earlier work
adiponectin [3] = test: Example 3 (INT131 activates bone remodeling): 14-day study in healthy subjects; assay type: in vivo, human; conditions: 0.1 mg INT131 daily for 14 days
Experimental: as §1

diet-induced obese mice = conditions: 10 mg/kg of INT131, Lee et al. 2012; cited from earlier work
[4] = test system: mesenchymal stem cells (MSCs); test: differentiation of mesenchymal stem cells into osteoblasts / adipocytes; assay type: cell-based; conditions: no method described
[5] = DePaoli et al., Diabetes Care 2014; cited from earlier work
adiponectin [6] = test: randomized, double-blind, placebo-controlled, 24-week study in subjects with type 2 diabetes: adiponectin levels; assay type: in vivo, human; conditions: for Mean Change in adiponectin from baseline (Week 0) to Week 24: LOCF, type 2 diabetes subjects
Experimental: A randomized, double-blind, placebo-controlled, 24-week study was conducted in which adiponectin levels were measured. […] 367 subjects with type 2 diabetes (TD2)—a disease in which patient adiponectin levels are reduced—were randomly assigned to receive either 0.5, 1, 2 or 3 milligrams (“mg”) of INT131 besylate, 45 mg of pioglitazone or placebo daily for 24 weeks. To measure adiponectin levels blood was drawn at Weeks 0, 2, 6, 12 and 24.
At baseline (Week 0) mean adiponectin levels were 1.94 micrograms per milliliter (“μg/mL”). The mean adiponectin levels at baseline and Week 24, and the mean change in adiponectin levels from baseline (Week 0) to Week 24 are disclosed in Table 1, below. The standard deviation for samples tested in each group is listed in (parenthesis). Mean baseline adiponectin values were similar for the treatment groups.

HbA1c [7] = test: 24-week study in subjects with type 2 diabetes: HbA1c levels; assay type: in vivo, human; conditions: 2 and 3 mg doses of INT131, daily for 24 weeks
[8] = 0.1 mg INT131 daily for 14 days

SMILES | change in adiponectin levels over placebo (adiponectin [1]; [8]) | change in serum adiponectin levels from Day 1 to Day 14 (adiponectin [1]; [8]) | change in serum adiponectin levels over placebo (adiponectin [1]; 1 mg or 4 mg INT131 daily for 14 days) | efficacy in reducing HbA1c levels compared with 45 mg of pioglitazone (HbA1c [2]) | change from Day 1 to Day 14 (sentence breaks off) (adiponectin [3]) | effect on bone mass (diet-induced obese mice) | differentiation of mesenchymal stem cells (MSCs) into osteoblasts [4] | increase of adipocytes [4] | edema, weight gain and hemodilution compared with subjects taking pioglitazone [5] | Mean Change in adiponectin from baseline (Week 0) to Week 24 (adiponectin [6]; 0.5 mg INT131 besylate daily) [µg/mL] | Mean Change in adiponectin from baseline (Week 0) to Week 24 (adiponectin [6]; 1 mg INT131 besylate daily) [µg/mL] | treatment comparison with placebo, adiponectin levels (adiponectin [6]; 1 mg, 2 mg and 3 mg doses of INT131, p≤0.0109) | Mean Change in adiponectin from baseline (Week 0) to Week 24 (adiponectin [6]; 2 mg INT131 besylate daily) [µg/mL] | Mean Change in adiponectin from baseline (Week 0) to Week 24 (adiponectin [6]; 3 mg INT131 besylate daily) [µg/mL] | reduction of HbA1c levels compared with 45 mg of pioglitazone (HbA1c [7]) | Mean Change in adiponectin from baseline (Week 0) to Week 24 (adiponectin [6]; 45 mg pioglitazone daily) [µg/mL]
O=S(=O)(Nc1cc(Cl)c(Oc2cnc3ccccc3c2)c(Cl)c1)c1ccc(Cl)cc1Cl [INT131] | no significant change | no significant change | significant change | equally efficacious | no significant | does not affect bone mass | promotes | does not result in an increase | less | 0.56 | 1.28 | statistically significant | 3.27 | 3.83 | at least as well | 
CCc1ccc(CCOc2ccc(CC3SC(=O)NC3=O)cc2)nc1 (stereo not shown) [pioglitazone, reference compound] |  |  |  |  |  |  |  |  |  |  |  |  |  |  |  | 2.96
